Assays:
[1] = system: HOP-62; type: cell-based; conditions: Non-small cell lung cancer; 10^−5 molar; 48 hours; SRB
[2] = system: 60 cancer cell lines; assay: NCI 60-cell screen, SRB, whole panel (mean, delta, range); type: cell-based; conditions: 10^−5 molar, 48 hours, SRB; for Growth percent, Delta: delta over the cell panel; for Growth percent, Range: range over the cell panel; for Growth percent, Mean: mean over the cell panel
[3] = system: CCRF-CEM; type: cell-based; conditions: Leukemia; 10^−5 molar; 48 hours; SRB
[4] = system: HL-60(TB); type: cell-based; conditions: Leukemia; 10^−5 molar; 48 hours; SRB
[5] = system: K-562; type: cell-based; conditions: Leukemia; 10^−5 molar; 48 hours; SRB
[6] = system: MOLT-4; type: cell-based; conditions: Leukemia; 10^−5 molar; 48 hours; SRB
[7] = system: RPMI-8226; type: cell-based; conditions: Leukemia; 10^−5 molar; 48 hours; SRB
[8] = system: SR; type: cell-based; conditions: Leukemia; 10^−5 molar; 48 hours; SRB
[9] = system: A549/ATCC; type: cell-based; conditions: Non-small cell lung cancer; 10^−5 molar; 48 hours; SRB
[10] = system: HOP-92; type: cell-based; conditions: Non-small cell lung cancer; 10^−5 molar; 48 hours; SRB
[11] = system: NCI-H226; type: cell-based; conditions: Non-small cell lung cancer; 10^−5 molar; 48 hours; SRB
[12] = system: NCI-H23; type: cell-based; conditions: Non-small cell lung cancer; 10^−5 molar; 48 hours; SRB
[13] = system: NCI-H460; type: cell-based; conditions: Non-small cell lung cancer; 10^−5 molar; 48 hours; SRB
[14] = system: NCI-H522; type: cell-based; conditions: Non-small cell lung cancer; 10^−5 molar; 48 hours; SRB
[15] = system: COLO 205; type: cell-based; conditions: Colon cancer; 10^−5 molar; 48 hours; SRB
[16] = system: HCC-2998; type: cell-based; conditions: Colon cancer; 10^−5 molar; 48 hours; SRB
[17] = system: HCT-116; type: cell-based; conditions: Colon cancer; 10^−5 molar; 48 hours; SRB
[18] = system: HCT-15; type: cell-based; conditions: Colon cancer; 10^−5 molar; 48 hours; SRB
[19] = system: HT29; type: cell-based; conditions: Colon cancer; 10^−5 molar; 48 hours; SRB
[20] = system: KM12; assay: cells; type: cell-based; conditions: Colon cancer; 10^−5 molar; 48 hours; SRB
[21] = system: SW-620; type: cell-based; conditions: Colon cancer; 10^−5 molar; 48 hours; SRB
[22] = system: SF-268; type: cell-based; conditions: CNS cancer; 10^−5 molar; 48 hours; SRB
[23] = system: SF-295; type: cell-based; conditions: CNS cancer; 10^−5 molar; 48 hours; SRB
[24] = system: SF-539; type: cell-based; conditions: CNS cancer; 10^−5 molar; 48 hours; SRB
[25] = system: SNB-19; type: cell-based; conditions: CNS cancer; 10^−5 molar; 48 hours; SRB
[26] = system: SNB-75; type: cell-based; conditions: CNS cancer; 10^−5 molar; 48 hours; SRB
[27] = system: U251; type: cell-based; conditions: CNS cancer; 10^−5 molar; 48 hours; SRB
[28] = system: LOX IMVI; type: cell-based; conditions: Melanoma; 10^−5 molar; 48 hours; SRB
[29] = system: MALME-3M; type: cell-based; conditions: Melanoma; 10^−5 molar; 48 hours; SRB
[30] = system: M14; type: cell-based; conditions: Melanoma; 10^−5 molar; 48 hours; SRB
[31] = system: MDA-MB-435; type: cell-based; conditions: Melanoma; 10^−5 molar; 48 hours; SRB
[32] = system: SK-MEL-2; type: cell-based; conditions: Melanoma; 10^−5 molar; 48 hours; SRB
[33] = system: SK-MEL-28; type: cell-based; conditions: Melanoma; 10^−5 molar; 48 hours; SRB
[34] = system: SK-MEL-5; type: cell-based; conditions: Melanoma; 10^−5 molar; 48 hours; SRB
[35] = system: UACC-257; type: cell-based; conditions: Melanoma; 10^−5 molar; 48 hours; SRB
[36] = system: UACC-62; type: cell-based; conditions: Melanoma; 10^−5 molar; 48 hours; SRB
[37] = system: IGROV1; type: cell-based; conditions: Ovarian cancer; 10^−5 molar; 48 hours; SRB
[38] = system: OVCAR-4; type: cell-based; conditions: Ovarian cancer; 10^−5 molar; 48 hours; SRB
[39] = system: OVCAR-5; type: cell-based; conditions: Ovarian cancer; 10^−5 molar; 48 hours; SRB
[40] = system: OVCAR-8; type: cell-based; conditions: Ovarian cancer; 10^−5 molar; 48 hours; SRB
[41] = system: NCI/ADR-RES; type: cell-based; conditions: Ovarian cancer; 10^−5 molar; 48 hours; SRB
[42] = system: SK-OV-3; type: cell-based; conditions: Ovarian cancer; 10^−5 molar; 48 hours; SRB
[43] = system: 786-0; type: cell-based; conditions: Renal cancer; 10^−5 molar; 48 hours; SRB
[44] = system: A498; type: cell-based; conditions: Renal cancer; 10^−5 molar; 48 hours; SRB
[45] = system: ACHN; type: cell-based; conditions: Renal cancer; 10^−5 molar; 48 hours; SRB
[46] = system: CAKI-1; type: cell-based; conditions: Renal cancer; 10^−5 molar; 48 hours; SRB
[47] = system: RXF 393; type: cell-based; conditions: Renal cancer; 10^−5 molar; 48 hours; SRB
[48] = system: SN12C; type: cell-based; conditions: Renal cancer; 10^−5 molar; 48 hours; SRB
[49] = system: TK-10; type: cell-based; conditions: Renal cancer; 10^−5 molar; 48 hours; SRB
[50] = system: UO-31; type: cell-based; conditions: Renal cancer; 10^−5 molar; 48 hours; SRB
[51] = system: PC-3; type: cell-based; conditions: Prostate cancer; 10^−5 molar; 48 hours; SRB
[52] = system: DU-145; type: cell-based; conditions: Prostate cancer; 10^−5 molar; 48 hours; SRB
[53] = system: MCF7; type: cell-based; conditions: Breast cancer; 10^−5 molar; 48 hours; SRB
[54] = system: MDA-MB-231/ATCC; type: cell-based; conditions: Breast cancer; 10^−5 molar; 48 hours; SRB
[55] = system: HS 578T; type: cell-based; conditions: Breast cancer; 10^−5 molar; 48 hours; SRB
[56] = system: BT-549; type: cell-based; conditions: Breast cancer; 10^−5 molar; 48 hours; SRB
[57] = system: T-47D; type: cell-based; conditions: Breast cancer; 10^−5 molar; 48 hours; SRB
[58] = system: MDA-MB-486; type: cell-based; conditions: Breast cancer; 10^−5 molar; 48 hours; SRB

COc1nc2ccccc2c2c(=O)c3cc(Cl)ccc3sc12 [Compound 5, 10-Chloro-6-methoxy-12H-thiochromeno[2,3-c]quinolin-12-one]
Growth percent HOP-62 [1]: 96.64% | Growth percent, Delta [2]: 39.82% | Growth percent, Range [2]: 61.02% | melting point: 227 to 228 °C

CNc1nc2ccccc2c2c(=O)c3cc(Cl)ccc3sc12 [Compound N1, 10-Chloro-6-methylamino-12H-thiochromeno[2,3-c]quinolin-12-one]
Growth percent CCRF-CEM [3]: 79.77% | Growth percent HL-60(TB) [4]: 131.66% | Growth percent K-562 [5]: 40.69% | Growth percent MOLT-4 [6]: 86.86% | Growth percent RPMI-8226 [7]: 93.10% | Growth percent SR [8]: 47.76% | Growth percent A549/ATCC [9]: 51.68% | Growth percent HOP-62 [1]: 79.39% | Growth percent HOP-92 [10]: 59.15% | Growth percent NCI-H226 [11]: 73.53% | Growth percent NCI-H23 [12]: 44.39% | Growth percent NCI-H460 [13]: 73.84% | Growth percent NCI-H522 [14]: 97.00% | Growth percent COLO 205 [15]: 94.82% | Growth percent HCC-2998 [16]: 105.34% | Growth percent HCT-116 [17]: 32.49% | Growth percent HCT-15 [18]: 68.73% | Growth percent HT29 [19]: 114.79% | Growth percent KM12 [20]: 68.75% | Growth percent SW-620 [21]: 84.37% | Growth percent SF-268 [22]: 70.58% | Growth percent SF-295 [23]: 89.04% | Growth percent SF-539 [24]: 59.86% | Growth percent SNB-19 [25]: 96.48% | Growth percent SNB-75 [26]: 67.29% | Growth percent U251 [27]: 85.19% | Growth percent LOX IMVI [28]: 44.95% | Growth percent MALME-3M [29]: 72.46% | Growth percent M14 [30]: 105.85% | Growth percent MDA-MB-435 [31]: 84.97% | Growth percent SK-MEL-2 [32]: 110.10% | Growth percent SK-MEL-28 [33]: 83.41% | Growth percent SK-MEL-5 [34]: 80.13% | Growth percent UACC-257 [35]: 91.23% | Growth percent UACC-62 [36]: 77.66% | Growth percent IGROV1 [37]: 67.97% | Growth percent OVCAR-4 [38]: 71.33% | Growth percent OVCAR-5 [39]: 86.91% | Growth percent OVCAR-8 [40]: 31.61% | Growth percent NCI/ADR-RES [41]: 70.95% | Growth percent SK-OV-3 [42]: 88.67% | Growth percent 786-0 [43]: 95.51% | Growth percent A498 [44]: 82.89% | Growth percent ACHN [45]: 84.47% | Growth percent CAKI-1 [46]: 68.09% | Growth percent RXF 393 [47]: 84.52% | Growth percent SN12C [48]: 92.52% | Growth percent TK-10 [49]: 81.21% | Growth percent UO-31 [50]: 65.34% | Growth percent PC-3 [51]: 61.41% | Growth percent DU-145 [52]: 80.29% | Growth percent MCF7 (Table 2: MCF) [53]: 23.26% | Growth percent MDA-MB-231/ATCC [54]: 66.58% | Growth percent HS 578T [55]: 82.63% | Growth percent BT-549 [56]: 108.49% | Growth percent T-47D [57]: 42.13% | Growth percent MDA-MB-486 [58]: 8.75% | Growth percent, Delta [2]: 66.31% | Growth percent, Mean [2]: 75.06% | Growth percent, Range [2]: 122.91% | melting point: 237 to 238 °C

CCC(CC)Nc1nc2ccccc2c2c(=O)c3cc(Cl)ccc3sc12 [Compound N6, 10-Chloro-6-(pentan-3-ylamino)-12H-thiochromeno[2,3-c]quinolin-12-one]
Growth percent CCRF-CEM [3]: 93.72% | Growth percent HL-60(TB) [4]: 141.93% | Growth percent K-562 [5]: 95.25% | Growth percent MOLT-4 [6]: 103.08% | Growth percent RPMI-8226 [7]: 108.60% | Growth percent SR [8]: 104.59% | Growth percent A549/ATCC [9]: 91.04% | Growth percent HOP-62 [1]: 95.32% | Growth percent HOP-92 [10]: 83.26% | Growth percent NCI-H226 [11]: 79.22% | Growth percent NCI-H23 [12]: 94.17% | Growth percent NCI-H460 [13]: 99.42% | Growth percent NCI-H522 [14]: 99.02% | Growth percent COLO 205 [15]: 107.68% | Growth percent HCC-2998 [16]: 119.79% | Growth percent HCT-116 [17]: 99.01% | Growth percent HCT-15 [18]: 95.35% | Growth percent HT29 [19]: 116.70% | Growth percent KM12 [20]: 94.04% | Growth percent SW-620 [21]: 104.94% | Growth percent SF-268 [22]: 102.86% | Growth percent SF-295 [23]: 104.18% | Growth percent SF-539 [24]: 95.09% | Growth percent SNB-19 [25]: 99.01% | Growth percent SNB-75 [26]: 73.24% | Growth percent U251 [27]: 97.05% | Growth percent LOX IMVI [28]: 89.35% | Growth percent MALME-3M [29]: 92.36% | Growth percent M14 [30]: 107.34% | Growth percent MDA-MB-435 [31]: 108.13% | Growth percent SK-MEL-2 [32]: 104.97% | Growth percent SK-MEL-28 [33]: 98.40% | Growth percent SK-MEL-5 [34]: 90.08% | Growth percent UACC-257 [35]: 99.44% | Growth percent UACC-62 [36]: 83.74% | Growth percent IGROV1 [37]: 80.40% | Growth percent OVCAR-4 [38]: 98.77% | Growth percent OVCAR-5 [39]: 99.96% | Growth percent OVCAR-8 [40]: 95.31% | Growth percent NCI/ADR-RES [41]: 101.32% | Growth percent SK-OV-3 [42]: 99.71% | Growth percent 786-0 [43]: 108.84% | Growth percent A498 [44]: 103.44% | Growth percent ACHN [45]: 84.92% | Growth percent CAKI-1 [46]: 73.26% | Growth percent RXF 393 [47]: 93.23% | Growth percent SN12C [48]: 94.28% | Growth percent TK-10 [49]: 138.89% | Growth percent UO-31 [50]: 78.57% | Growth percent PC-3 [51]: 84.63% | Growth percent DU-145 [52]: 109.54% | Growth percent MCF7 (Table 2: MCF) [53]: 67.12% | Growth percent MDA-MB-231/ATCC [54]: 77.83% | Growth percent HS 578T [55]: 89.81% | Growth percent BT-549 [56]: 109.76% | Growth percent T-47D [57]: 73.62% | Growth percent MDA-MB-486 [58]: 95.79% | Growth percent, Delta [2]: 29.82% | Growth percent, Mean [2]: 96.94% | Growth percent, Range [2]: 74.81% | melting point: 160 to 161 °C

From patent US8927717B1, “Thiochromeno[2,3-c]quinolin-12-one derivatives, preparation method and application thereof” (National Defense Medical Center, priority 2014, dated 2015)
